Results from patent US20220402917A1, “COMPOUND AS SMALL MOLECULE INHIBITOR PD-1/PD-L1 AND APPLICATION THEREOF” (MEDSHINE DISCOVERY INC., priority 2019, published 2022).

What was measured:
PD1/PD-L1 = PD1/PD-L1 (Homo sapiens, UniProt Q9NZQ7); test: NFAT activity test (TCR Activitor/PD-L1 CHO cells with PD-1/NFAT Reporter-Jurkat cells); assay type: cell-based; parameters: host or cells: TCR Activitor/PD-L1 CHO cells; PD-1/NFAT Reporter-Jurkat cells; details: TCR Activitor/PD-L1 CHO cells + PD-1/NFAT Reporter-Jurkat cells, 5 hours, luciferase
Chain of PD1/PD-L1 (Q9NZQ7 19-290): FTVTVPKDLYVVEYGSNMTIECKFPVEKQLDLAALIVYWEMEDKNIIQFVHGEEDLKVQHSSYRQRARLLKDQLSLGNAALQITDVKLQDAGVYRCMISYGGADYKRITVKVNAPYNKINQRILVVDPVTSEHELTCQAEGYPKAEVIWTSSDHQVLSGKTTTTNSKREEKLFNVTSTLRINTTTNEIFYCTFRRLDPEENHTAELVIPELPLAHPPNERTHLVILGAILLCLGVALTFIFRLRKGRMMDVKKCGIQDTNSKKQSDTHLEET
Procedure, shortened: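 TCR activator/PD-L1 CHO cells were pretreated 30 min at 37 °C with compound (20 μM to 0.25 nM, 5-fold steps, 2% DMSO). PD-1/NFAT reporter Jurkat cells were then added for 5 h at 37 °C. NFAT-driven luciferase read by Bright-Glo luminescence, normalised to Min/Max, IC50 from 4-parameter fit.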

[1] = Pharmacokinetic test in C57BL/6 mice; assay type: in vivo; details: mouse, plasma, male C57BL/6 mice
Procedure: Experimental Example 4: Pharmacokinetic Test
Experimental purpose: To study the pharmacokinetics of compounds in C57BL/6 mice.
Experimental materials: C57BL/6 mice (male, 8 weeks old, body weight 25 g-30 g)
Experimental operation: The pharmacokinetic characteristics of rodents after intravenous (IV) and oral (PO) administration of compounds were tested in standard protocols. In the experiment, the candidate compounds were formulated into 1 mg/mL clear solutions, and administered to mice via a single intravenous injection and oral administration. The vehicle of intravenous and oral administration was 5% DMSO/5% polyethylene glycol 15-hydroxystearate (Solutol)/90% aqueous solution. Four male C57BL/6 mice were used in the experiment, wherein two mice were administered intravenously at a dose of 1 mg/kg, and the plasma samples were collected 0.0833, 0.25, 0.5, 1, 2, 4, 6, 8 and 24 h after administration, the other two mice were given oral gavage at a dose of 10 mg/kg, and the plasma samples were collected 0.25, 0.5, 1, 2, 4, 6, 8, and 24 h after administration. Whole blood samples within 24 hours were collected, centrifuged at 3000 g for 15 minutes, and the supernatant was separated to obtain plasma samples. Acetonitrile solution containing internal standard was added thereto to precipitate proteins, the mixture was thoroughly mixed and centrifuged to obtain the supernatant for injection. The plasma concentration was quantified by LC-MS/MS analysis method, and the pharmacokinetic parameters were calculated, such as peak concentration (Cmax), clearance (CL), half-life (T1/2), […] (Vdss), area under the drug-time curve (AUC0-last), bioavailability (F) and so on.

Maximum effect (induction fold) (PD1/PD-L1): 3.96 induction fold | IC50 (PD1/PD-L1; read-out: IC50, inhibitory activity on PD1/PD-L1 binding (NFAT activity test)): 13.9 nM | bioavailability ([1]; PO 10 mg/kg vs IV 1 mg/kg, read-out: Bioavailability F): 34.9% | Cmax ([1]; IV 1 mg/kg, PO 10 mg/kg (route not given for Cmax), read-out: Peak concentration Cmax): 117 nM | clearance ([1]; IV 1 mg/kg, read-out: Clearance CL): 98.4 mL/min/kg | half-life ([1]; IV 1 mg/kg, read-out: Half-life T1/2 (IV) (converted)): 11.6 h | Vd ([1]; IV 1 mg/kg, read-out: Tissue distribution Vdss): 65.6 L/kg | AUC(0-t) ([1]; PO 10 mg/kg, read-out: Area under the drug-time curve AUC0-last PO): 0.796 µM·h
Compound: COc1nc(-c2cccc(-c3cccc(NC(=O)c4cc(C)c5c(n4)CN(CCO)CC5)c3Cl)c2Cl)cnc1CN1CC(O)C1 [Compound 21]
